# Measured values published in patent publication US20250213530A1 (GH RESEARCH IRELAND LIMITED, priority 2022, published 2025).
# Experiments:
# [1] = Pharmacokinetics after inhalation of 5-MeO-DMT, LC-MS/MS
# [2] = system: patient with postpartum depression (PPD); test: Clinical trial of inhaled 5-MeO-DMT (IDR, 6 mg then 12 mg), MADRS; format: in vivo, human; details: one PPD patient; for Total MADRS improvement / Total MADRS score: baseline 29
# Source text: (§1) The patient completed all planned visit days.
# [3] = system: patient with postpartum depression (PPD); test: Clinical trial of inhaled 5-MeO-DMT (IDR, 6 mg then 12 mg), BPRS; format: in vivo, human; details: one PPD patient, baseline 6
# Source text: as §1
# [4] = system: patient with postpartum depression (PPD); test: Clinical trial of inhaled 5-MeO-DMT (IDR, 6 mg then 12 mg), Barkin Index of Maternal Functioning (BIMF); format: in vivo, human; details: one PPD patient
# Source text: Maternal functioning can, for instance, be assessed using the Barkin Index of Maternal Functioning (BIMF). This index was designed to measure functioning in the year after childbirth. The BIMF is a 20-item self-report measure of functioning. Each item is assigned a score between 0 and 6 so that the maximum total score is 120. The higher the score, the better maternal functioning is rated.
# The BIMF identifies the key functional domains of a mother during the postnatal period as: self-care, infant care, mother-child interaction, psychological wellbeing of the mother, social support, management, and adjustment.
# as §1
# [5] = system: patient with postpartum depression (PPD); test: Clinical trial of inhaled 5-MeO-DMT, safety and tolerability; format: in vivo, human; details: one PPD patient
# Source text: as §1
structure (smiles),measurement,setting,value
COc1ccc2[nH]cc(CCN(C)C)c2c1 [5-MeO-DMT],plasma concentration as % of Cmax,"[1]; 10 minutes after administration, whole dose range tested (6 mg, 12 mg, 18 mg)",≤ 10 % of Cmax
same,plasma concentration as % of Cmax,"[1]; after 2 hours, whole dose range tested (6 mg, 12 mg, 18 mg)",≤ 1 % of Cmax
same,detectability in the plasma,"[1]; after 3 hours, whole dose range tested (6 mg, 12 mg, 18 mg)",no longer detectable
same,"pharmacokinetic measurements, uptitration dosing schemes",[1]; compared with the single dose results,Substantially similar results
same,accumulation upon repeated administration,[1]; repeated administration within a time frame of 1 to 4 hours,No accumulation
same,standard criteria for MADRS remission (MADRS total score equal or less than 10),[2],fulfilled
same,standard criteria for MADRS response (at least 50% improvement from baseline),[2],fulfilled
same,Total MADRS improvement,[2]; 2 hr,24
same,Total MADRS score,[2]; 2 hr,5
same,Total MADRS improvement,[2]; Day 1,29
same,Total MADRS score,[2]; Day 1,0
same,Total MADRS improvement,[2]; Day 7,28
same,Total MADRS score,[2]; Day 7,1
same,time to clinical remission after administration,[2]; IDR 6 mg then 12 mg,≤ 2 h
same,BPRS Tension improvement,[3]; Day 1,5
same,BPRS Tension improvement,[3]; Discharge,5
same,"BIMF item 19 (As time goes on, I am getting better at taking care of my baby) score","[4]; Day 7, Day 0 score 0",1
same,BIMF item 16 (I worry about how other people judge me (as a mother)) score,"[4]; Day 7, Day 0 score 3",5
same,BIMF item 13 (I am taking good care of my physical needs) score,"[4]; Day 7, Day 0 score 4",5
same,BIMF item 5 (I am able to relax and enjoy time with my baby) score,"[4]; Day 7, Day 0 score 5",6
same,BIMF item 9 (I am getting enough encouragement from other people) score,"[4]; Day 7, Day 0 score 5",6
same,BIMF item 10 (I trust my own feelings (instincts) when it comes to taking care of my baby) score,"[4]; Day 7, Day 0 score 5",6
same,BIMF item 11 (I take a little time each week to do something for myself) score,"[4]; Day 7, Day 0 score 5",6
same,BIMF item 17 (I am able to take care of my baby and my other responsibilities) score,"[4]; Day 7, Day 0 score 5",5
same,BIMF functional domain Adjustment score,"[4]; Day 7, Day 0 score 5, maximum possible 12",6
same,BIMF item 3 (I am comfortable with the way I've chosen to feed my baby) score,"[4]; Day 7, Day 0 score 6",6
same,BIMF item 6 (There are people in my life that I can trust to care for my baby when I need a break) score,"[4]; Day 7, Day 0 score 6",6
same,BIMF item 8 (I am getting enough adult interaction) score,"[4]; Day 7, Day 0 score 6",6
same,BIMF item 12 (I am taking good care of my baby's physical needs) score,"[4]; Day 7, Day 0 score 6",6
same,BIMF item 14 (I make good decisions about my baby's health and well being) score,"[4]; Day 7, Day 0 score 6",6
same,BIMF item 20 (I am satisfied with the job I am doing as a new mother) score,"[4]; Day 7, Day 0 score 6",5
same,BIMF functional domain Self Care score,"[4]; Day 7, Day 0 score 9, maximum possible 18",13
same,BIMF functional domain Infant Care score,"[4]; Day 7, Day 0 score 12, maximum possible 12",12
same,BIMF functional domain Mother-Child Interaction score,"[4]; Day 7, Day 0 score 15, maximum possible 18",17
same,BIMF functional domain Social Support score,"[4]; Day 7, Day 0 score 17, maximum possible 18",18
same,BIMF functional domain Management score,"[4]; Day 7, Day 0 score 28, maximum possible 36",33
same,BIMF functional domain Psychological Well-being score,"[4]; Day 7, Day 0 score 44, maximum possible 60",53
same,BIMF total score improvement,"[4]; Day 7, from 92 to 105",14%
same,BIMF TOTAL Δ (Day 7),[4]; Day 7 vs Day 0,13
same,BIMF functional domain Adjustment % Improvement,[4]; Day 7 vs Day 0,20.00%
same,BIMF functional domain Infant Care % Improvement,[4]; Day 7 vs Day 0,0.00%
same,BIMF functional domain Management % Improvement,[4]; Day 7 vs Day 0,18%
same,BIMF functional domain Self Care % Improvement,[4]; Day 7 vs Day 0,44%
same,BIMF item 3 (I am comfortable with the way I've chosen to feed my baby) Δ (Day 7),[4]; Day 7 vs Day 0,0
same,BIMF item 5 (I am able to relax and enjoy time with my baby) Δ (Day 7),[4]; Day 7 vs Day 0,1
same,BIMF item 6 (There are people in my life that I can trust to care for my baby when I need a break) Δ (Day 7),[4]; Day 7 vs Day 0,0
same,BIMF item 8 (I am getting enough adult interaction) Δ (Day 7),[4]; Day 7 vs Day 0,0
same,BIMF item 9 (I am getting enough encouragement from other people) Δ (Day 7),[4]; Day 7 vs Day 0,1
same,BIMF item 10 (I trust my own feelings (instincts) when it comes to taking care of my baby) Δ (Day 7),[4]; Day 7 vs Day 0,1
same,BIMF item 11 (I take a little time each week to do something for myself) Δ (Day 7),[4]; Day 7 vs Day 0,1
same,BIMF item 12 (I am taking good care of my baby's physical needs) Δ (Day 7),[4]; Day 7 vs Day 0,0
same,BIMF item 13 (I am taking good care of my physical needs) Δ (Day 7),[4]; Day 7 vs Day 0,1
same,BIMF item 14 (I make good decisions about my baby's health and well being) Δ (Day 7),[4]; Day 7 vs Day 0,0
same,BIMF item 17 (I am able to take care of my baby and my other responsibilities) Δ (Day 7),[4]; Day 7 vs Day 0,0
same,"BIMF item 19 (As time goes on, I am getting better at taking care of my baby) Δ (Day 7)",[4]; Day 7 vs Day 0,1
same,BIMF item 20 (I am satisfied with the job I am doing as a new mother) Δ (Day 7),[4]; Day 7 vs Day 0,−1
same,"ECG (at 3 hours), safety laboratory analyses (at 7 days), CADSS (at 3 hours, 1 day and 7 days)",[5],unremarkable
same,"reported adverse events (cramping left abdominal pain and headache, both on Day 0)",[5],"mild, short-lasting and resolved spontaneously"
same,tolerability of the inhalation procedure,[5],well tolerated with no inhalation-related adverse events
same,changes in vital parameters,"[5]; shortly after administration, no other noteworthy changes","temporary, clinically non-relevant increase in heart rate and blood pressure"
